Reference: patent publication US10821118B2, “Oral transmucosal drug delivery system” (ABON PHARMACEUTICALS, LLC, priority 2012, dated 2020)
In brackets after ≈: the same amount, converted by molar mass.

Legend:
[1] = system: Sex Hormone Binding Globulin (SHBG), albumin; settings: cited from earlier work
[2] = Heat of fusion of testosterone by DSC, molten / heat treated testosterone-agent samples; format: physicochemical; settings: pure crystalline testosterone, at melting point of about 150° C.
Experimental: The heat of fusion (ΔHf) can be measured via Differential Scanning calorimetry (DSC).
Talc is an inert purified hydrated magnesium silicate with a melting point of 1500° C.

[3] = Solubility of testosterone in molten CIA systems
Experimental: In each solubility study, a molten solvent of single or combination CIA was prepared by heating and melting the CIA system using a water bath. […] The melt suspension was mixed for at least another 30 minutes while maintaining the CIA's molten state.

[4] = Testosterone solubility in aqueous media (SSF) containing various CIAs; format: physicochemical; settings: Simulated Saliva Fluid (SSF) containing CIA, thermodynamic from solid, Solubility of Testosterone in CIA Containing SSF
Experimental: Then the sample was filtered through a 0.45 μm polyvinylidene fluoride (PVDF) and the filtrate was analyzed by HPLC.

[5] = Solubility of crystalline drug in water; settings: 37 °C

## C[C@]12CC[C@H]3[C@@H](CCC4=CC(=O)CC[C@@]43C)[C@@H]1CC[C@@H]2O [Testosterone]
[1]; blood circulation
  protein bound in the blood circulation: 96%
[1]; in males
  'free': 2-3%
  bound to Sex Hormone Binding Globulin (SHBG): about 44%
  bound to albumin: 50%
[2]
  heat of fusion (ΔHf): about 102.4 J/g
[3]; Table 24: PEG 8000 50% / oleic acid 50%
  Solubility of Testosterone in CIA, Theoretical: 117.1 mg/gm
[3]; Table 24: molten PEG 8000 50% / oleic acid 50%
  Solubility of Testosterone in CIA, Actual: 136.2 mg/gm
[3]; Table 24: molten PEG 8000 50% / vitamin E-TPGS 50%
  Solubility of Testosterone in CIA, Actual: 137.9 mg/gm
[3]; Table 24: molten oleic acid 50% / vitamin E-TPGS 50%
  Solubility of Testosterone in CIA, Actual: 123.6 mg/gm
[3]; Table 24: molten oleic acid 100%
  Solubility of Testosterone in CIA, Actual: 58.3 mg/gm
[3]; Table 24: molten oleic acid 100%, listed as testosterone
  Solubility of Testosterone in CIA, Actual: about 58.3 mg/gm
[3]; Table 24: molten polyethylene glycol 8000 100%
  Solubility of Testosterone in CIA, Actual: 175.9 mg/gm
[3]; Table 24: molten polyethylene glycol 8000 100%, listed as testosterone
  Solubility of Testosterone in CIA, Actual: about 175.9 mg/gm
[3]; Table 24: molten vitamin E-TPGS 100%
  Solubility of Testosterone in CIA, Actual: 78.9 mg/gm
[3]; Table 24: molten vitamin E-TPGS 100%, listed as testosterone
  Solubility of Testosterone in CIA, Actual: about 78.9 mg/gm
[3]; Table 25: PEG 8000 50% / lauroyl polyoxyl-32 glycerides 50%
  Solubility of Testosterone in CIA, Theoretical: 130.0 mg/gm
[3]; Table 25: PEG 8000 50% / vitamin E TPGS 50%
  Solubility of Testosterone in CIA, Theoretical: 130.6 mg/gm
[3]; Table 25: molten PEG 8000 50% / lauroyl polyoxyl-32 glycerides 50%
  Solubility of Testosterone in CIA, Actual: 129.9 mg/gm
[3]; Table 25: molten PEG 8000 50% / vitamin E TPGS 50%
  Solubility of Testosterone in CIA, Actual: 144.2 mg/gm
[3]; Table 25: molten lauroyl polyoxyl-32 glycerides 100%
  Solubility of Testosterone in CIA, Actual: 81.6 mg/gm
[3]; Table 25: molten polyethylene glycol 8000 100%
  Solubility of Testosterone in CIA, Actual: 178.4 mg/gm
[3]; Table 25: molten vitamin E TPGS 50% / lauroyl polyoxyl-32 glycerides 50%
  Solubility of Testosterone in CIA, Actual: 114.6 mg/gm
[3]; Table 25: molten vitamin E TPGS 100%
  Solubility of Testosterone in CIA, Actual: 82.7 mg/gm
[3]; Table 25: vitamin E TPGS 50% / lauroyl polyoxyl-32 glycerides 50%
  Solubility of Testosterone in CIA, Theoretical: 82.2 mg/gm
[3]; […]
  Solubility of Testosterone in CIA, Actual: 136.6 mg/gm
[4]; aqueous with cosolvent or surfactant or cyclodextrin, SSF with 0.25% vitamin E-TPGS
  solubility: 60.8 µg/mL (≈ 211 µM)
[4]; aqueous with cosolvent or surfactant or cyclodextrin, SSF with 0.5% vitamin E-TPGS
  solubility: 90.1 µg/mL (≈ 312 µM)
[4]; aqueous with cosolvent or surfactant or cyclodextrin, SSF with 5% lauroyl polyoxyl-32 glycerides
  solubility: 358 µg/mL (≈ 1240 µM)
[4]; aqueous with cosolvent or surfactant or cyclodextrin, SSF with 5% oleic acid (oleic acid itself not soluble in SSF)
  solubility: 27 µg/mL (≈ 93.6 µM)
[4]; aqueous with cosolvent or surfactant or cyclodextrin, SSF with 5% polyethylene glycol
  solubility: 32 µg/mL (≈ 111 µM)
[4]; aqueous with cosolvent or surfactant or cyclodextrin, SSF with 5% vitamin E-TPGS
  solubility: 600 µg/mL (≈ 2080 µM)
[4]; aqueous with cosolvent or surfactant or cyclodextrin, SSF with 10% lauroyl polyoxyl-32 glycerides
  solubility: 694 µg/mL (≈ 2410 µM)
[4]; aqueous with cosolvent or surfactant or cyclodextrin, SSF with 10% oleic acid (oleic acid itself not soluble in SSF)
  solubility: 29 µg/mL (≈ 101 µM)
[4]; aqueous with cosolvent or surfactant or cyclodextrin, SSF with 10% polyethylene glycol
  solubility: 45 µg/mL (≈ 156 µM)
[4]; aqueous with cosolvent or surfactant or cyclodextrin, SSF with 10% vitamin E-TPGS
  solubility: 1210 µg/mL (≈ 4200 µM)
[4]; aqueous with cosolvent or surfactant or cyclodextrin, SSF with 20% lauroyl polyoxyl-32 glycerides
  solubility: 1350 µg/mL (≈ 4670 µM)
[4]; aqueous with cosolvent or surfactant or cyclodextrin, SSF with 20% oleic acid (oleic acid itself not soluble in SSF)
  solubility: 29 µg/mL (≈ 101 µM)
[4]; aqueous with cosolvent or surfactant or cyclodextrin, SSF with 20% polyethylene glycol
  solubility: 69.4 µg/mL (≈ 241 µM)
[4]; aqueous with cosolvent or surfactant or cyclodextrin, SSF with 20% vitamin E-TPGS
  solubility: 2250 µg/mL (≈ 7800 µM)
[4]; aqueous with cosolvent or surfactant or cyclodextrin, saturated CIA solution, 0.34 g/mL of lauroyl polyoxyl-32 glycerides in SSF
  solubility: 2370 µg/mL (≈ 8220 µM)
[4]; aqueous with cosolvent or surfactant or cyclodextrin, saturated CIA solution, 0.53 g of vitamin E TPGS in SSF
  solubility: 4190 µg/mL (≈ 14500 µM)
[4]; aqueous with cosolvent or surfactant or cyclodextrin, saturated CIA solution, 1.73 g/mL of polyethylene glycol in SSF
  solubility: 1600 µg/mL (≈ 5550 µM)
[4]; fassgf or other biorelevant, SSF with 0.25% polyethylene glycol
  solubility: 28.1 µg/mL (≈ 97.4 µM)
[4]; fassgf or other biorelevant, SSF with 0.5% polyethylene glycol
  solubility: 27.8 µg/mL (≈ 96.4 µM)
[5]
  solubility: ~27 µg/mL (≈ 93.6 µM)
